Test results published in patent US20140113014A1, “CHICORY FOR PREVENTION AND TREATMENT OF NEURODEGENERATION” (NESTEC S.A., priority 2011, published 2014).

System: primary cortical neurons
Assay: Primary cortical neuron aging model, neuronal survival by NeuN count
Assay type: cell-based, rat
Conditions: run in parallel with the chicory extract
Source text: A primary cortical culture system to study the effects of compounds on neuronal aging has been developed and applied to study the effects of chicory on neuronal survival. This cell culture system has been developed as a model of neuronal aging in order to mimic processes which occur during normal aging of neurons without a neurotoxic challenge. With this model beneficial effects against physiological neurodegeneration during aging can be studied and compounds which increase neuronal survival can be identified. This is a different approach from the models described in the prior art in which the cells are challenged with a neurotoxic insult in order to induce different degrees of neurodegeneration. Using immune-cytochemical analysis of the antigen, NeuN (Neuronal Nuclei), which is a sensitive marker of neurodegeneration, a reliable method for examining the lifespan of cortical neurons in culture has been established. The sensitivity of NeuN can be attributed to its steady reduction in expression intensity as neurons degenerate, which is in contrast to many antigens whose expression can distinguish only between living and dead neurons. Between four and six weeks after plating, the cortical neurons begin to degenerate, leading to a […] in NeuN count over this time (FIG. 1A). […] All tests were fixed at a time point between 6 and 8 weeks. […]

`O=C(Nc1cccc([N+](=O)[O-])c1)c1cccc(S(=O)(=O)N2CCCCCC2)c1` [AK-1] was tested, and the “neuroprotective effect of the positive control relative to the chicory extract” value was “smaller neuroprotective effect than the chicory extract” and the “neuroprotective effect of the positive control versus non-treated cells” value was “significantly positive over non-treated cells”.
